Assay results: US20060122181A1, “Heteroaromatic pentacyclic compound and medicinal use thereof” (Japan Tobacco Inc., priority 2003, published 2006)

Assays:
[1] = biological target: T1, Recombinant human protein tyrosine phosphatase 1B (Homo sapiens, UniProt P18031); test: Protein tyrosine phosphatase 1B inhibitory activity (malachite green, phosphorylated insulin receptor peptide substrate); assay type: biochemical; conditions: recombinant human PTP1B, 60 min room temperature, absorbance 650 nm
T1 construct: purchased UBI
T1 sequence (P18031 1-435): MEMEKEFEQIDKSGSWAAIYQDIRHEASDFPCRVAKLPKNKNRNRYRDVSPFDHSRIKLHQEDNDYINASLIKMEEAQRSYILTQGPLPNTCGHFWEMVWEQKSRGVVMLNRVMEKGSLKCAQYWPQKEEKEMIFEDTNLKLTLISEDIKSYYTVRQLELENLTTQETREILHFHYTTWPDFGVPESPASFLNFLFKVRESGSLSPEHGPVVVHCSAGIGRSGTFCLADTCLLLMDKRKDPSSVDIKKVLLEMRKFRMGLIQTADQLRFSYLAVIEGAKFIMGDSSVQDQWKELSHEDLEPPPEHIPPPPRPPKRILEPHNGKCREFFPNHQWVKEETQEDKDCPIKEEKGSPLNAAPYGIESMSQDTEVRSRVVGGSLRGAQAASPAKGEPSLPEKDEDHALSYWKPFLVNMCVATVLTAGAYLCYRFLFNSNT
Method: Preparation of Assay Buffer:
A 50 mM Tris-HCl buffer (pH 7.5), 50 mM NaCl and 3 mM dithiothreitol (DTT) were prepared.
[…] 0.1, 0.3, 1, 3 and 10 μM of the test compound were prepared and diluted with the above-mentioned assay buffer to the final dimethyl sulfoxide (DMSO) concentration of not more than 1%. As the control, the assay buffer was used.
Preparation of Substrate:
Recombinant human protein tyrosine phosphatase 1B (manufactured by UBI) was diluted with the above-mentioned assay buffer (1.2 ng/25 μl).
The sample (10 μl) prepared as mentioned above and a substrate (25 μl) were successively added to a 96 well plate, and the enzyme (25 μl) prepared as mentioned above was added and mixed. The mixture was incubated at room temperature for 60 min and a malachite green (120 μl, Biomol), which is a color reagent, was added. The mixture was further incubated at room temperature for 20 min to allow for color development. An absorbance at 650 nm was measured on a plate reader based on which the protein tyrosine phosphatase 1B inhibitory activity of the test compound was evaluated.

male ob/ob mice = test: Hypoglycemic activity in ob/ob mice; assay type: in vivo; conditions: dose 1 mg/kg oral, fasting, relative to control group
Method: A 0.5% methyl cellulose suspension of the test compound was orally administered to 6- to 9-week-old male ob/ob mice grouped according to the glucose level. Only a 0.5% methyl cellulose solution was administered to a control group.
Blood was drawn under fasting condition, which condition was started simultaneously with the administration by means of removing the feed. The blood was drawn under anesthesia from the orbital vein 3 hours after the administration. The blood thus taken was centrifuged and the glucose level was measured from the obtained plasma by the hexokinase method (glucose measurement kit). For evaluation, the percentage (%) of decrease in the glucose level of the test compound-administered group relative to the control group is shown.

IC50 [1] | melting point | Compound | blood glucose decreasing rate (%) 3 hours later (male ob/ob mice)
0.54 µM | – | CN(Cc1ccc([C@H]2CC[C@H](C)CC2)cc1)c1ccc(-c2csc(CN(CC(=O)O)Cc3ccccn3)n2)cc1 [Example 3-52] | 28%
0.17 µM | 153.7 to 154.9 °C | CCCC(CCC)c1ccc(OCc2ccc(-c3csc(COc4cc(C(=O)O)ccc4NC(=O)C(C)C)c3)cc2)cc1 [Example 4-57] | –
0.27 µM | 121 to 128 °C | O=C(O)CCN(Cc1ccccc1)Cc1ccc(-c2ccc3c(c2)CCC3Cc2ccc(C3CCCCC3)cc2)s1 (stereo not drawn) [Example 4-84] | –
< 0.1 µM | 203.8 to 206.2 °C | CCCC(CCC)c1ccc(OCc2ccc(-c3csc(CN(CC(=O)O)Cc4ccc(-c5cccs5)s4)c3)cc2)cc1 [Example 4-93] | –
0.12 µM | 134 to 136 °C | CCCC(CCC)c1ccc(OCc2ccc(-c3ccc(C(=O)N(CC(=O)O)Cc4ccc(C(C)C)cc4)s3)cc2)cc1 [Example 4-44] | –
0.28 µM | 145.9 to 149.3 °C | CCCC(CCC)c1ccc(OCc2ccc(-c3ccc(CN(CC(=O)O)Cc4c[nH]nc4-c4ccccc4)s3)cc2)cc1 [Example 4-95] | –
< 0.1 µM | 151.2 to 154.4 °C | CCCC(CCC)c1ccc(OCc2ccc(-c3ccc(CN(CC(=O)O)S(=O)(=O)c4ccc(Cl)s4)s3)cc2)cc1 [Example 4-100] | –
0.2 µM | 174 to 175 °C | CCCC(CCC)c1ccc(OCc2ccc(-c3csc(CC4CCN(c5ccc(C(=O)O)cc5)CC4)n3)cc2)cc1 [Example 1-181] | –
0.24 µM | 139 to 140.2 °C | CCCC(CCC)c1ccc(OCc2ccc(-c3csc(CN(CC(=O)O)S(=O)(=O)N(C)c4ccccc4)c3)cc2)cc1 [Example 4-64] | –
0.28 µM | 107 to 110 °C | CCCC(CCC)c1ccc(Cn2cc(-c3csc(CN4CCN(c5cccc(C(=O)O)c5)CC4)n3)c3ccccc32)cc1 [Example 1-172] | –
0.15 µM | 146 to 152 °C | CCCC(CCC)c1ccc(OCc2ccc(-c3csc(CN(CC(=O)O)C(=O)COc4ccc(C(C)C)cc4)c3)cc2)cc1 [Example 4-69] | –
0.19 µM | 148 to 152 °C | CCCC(CCC)c1ccc(Cn2cc(-c3csc(Cn4cc(C(=O)O)c5ccccc54)n3)c3ccccc32)cc1 [Example 1-182] | –
0.21 µM | 187 to 189 °C | CCCC(CCC)c1ccc(COc2ccc(-c3csc(CN4CCC(c5cccc(C(=O)O)c5)CC4)n3)cc2)cc1 [Example 1-162] | –
< 0.1 µM | 146.7 to 148.9 °C | CCCC(CCC)c1ccc(OCc2ccc(-c3csc(CN(CC(=O)O)Cc4cc5ccccc5o4)c3)cc2)cc1 [Example 4-92] | –
0.23 µM | 141 to 144 °C | CCN(Cc1ccc(C2CCCCC2)cc1)c1ccc(-c2ccc(CN(CCOc3ccccc3)CC(=O)O)s2)cc1 [Example 4-67] | –
< 0.1 µM | 133.9 to 135.1 °C | CCCC(CCC)c1ccc(OCc2ccc(-c3csc(CSc4ccc(C(=O)O)cc4)c3)cc2)cc1 [Example 4-60] | –
0.21 µM | 146 °C | CCCC(CCC)c1ccc(CN(C)c2ccc(-c3csc(CN(C)[C@H](C(=O)O)c4ccccc4)n3)cc2)cc1 [Example 3-87] | –
0.18 µM | 191 to 193 °C | CCCC(CCC)c1ccc(COc2ccc(-c3csc(CN4CCC(c5ccc(C(=O)O)cc5)CC4)n3)cc2)cc1 [Example 1-161] | –
0.17 µM | 185 to 188 °C | CCCC(CCC)c1ccc(OCc2ccc(-c3ccc(C(=O)N(CC(=O)O)Cc4nc5ccccc5n4C)s3)cc2)cc1 [Example 4-42] | –
< 0.1 µM | 168 to 169.9 °C | C[C@H]1CC[C@H](c2ccc(COc3ccc(-c4ccc(CN(CC5CCCCC5)C(=O)Nc5ccc(C(=O)O)cc5)s4)cc3)cc2)CC1 [Example 4-80] | –
< 0.1 µM | 234 to 241.8 °C | C[C@H]1CC[C@H](c2ccc(COc3ccc(-c4ccc(CN(CC5CCCCC5)S(=O)(=O)c5ccc(C(=O)O)cc5)s4)cc3)cc2)CC1 [Example 4-79] | –

IC50 [1] | melting point | Compound | blood glucose decreasing rate (%) 3 hours later (male ob/ob mice)
0.17 µM | 137.5 to 141.5 °C | CCCC(CCC)c1ccc(OCc2ccc(-c3csc(CN(CC(=O)O)Cc4nc5ccccc5n4C)c3)cc2)cc1.O=S(=O)(O)O [Example 4-55] | –
0.48 µM | 75.3 to 79.3 °C | CCCC(CCC)c1ccc(OCc2ccc(-c3ccc(CN(CC(=O)OCC)CC(=O)c4ccc(N5CCCC5)cc4)s3)cc2)cc1.Cl [Example 4-82] | –
< 0.1 µM | 181.4 to 184.5 °C | CCCC(CCC)c1ccc(OCc2ccc(-c3ccc(CN(CC(=O)O)Cc4cc(-c5ccccc5)cs4)s3)cc2)cc1 [Example 4-98] | –
0.45 µM | 227.3 to 233.6 °C | Cl.O=C(O)C1(c2ccccc2)CCN(Cc2ccc(-c3cn(Cc4ccc(C5CCCCC5)cc4)c4ccccc34)s2)CC1 [Example 4-62] | –
0.19 µM | 69.4 to 78.3 °C | CCCC(CCC)c1ccc(OCc2cccc(-c3csc(CN4CCc5ccc(C(=O)O)cc5C4)c3)c2)cc1 [Example 4-73] | –
0.1 µM | 194.8 to 197 °C | CCCC(CCC)c1ccc(OCc2ccc(-c3ccc(CN(CC(=O)O)Cc4nc5ccccc5n4CC(=O)N(CC)CC)s3)cc2)cc1 [Example 4-101] | –
0.17 µM | 199 to 200 °C | CCCC(CCC)c1ccc(Cn2cc(-c3csc(COc4ccc(C(=O)O)cc4)n3)c3ccccc32)cc1 [Example 1-157] | –
0.16 µM | 167 to 170 °C (dec.) | CN(C[C@H]1CC[C@H](c2ccc(Cl)cc2)CC1)c1ccc(-c2csc(CN3CCC(C(=O)O)(c4ccccc4)CC3)n2)cc1 [Example 3-70] | –
0.38 µM | 153 to 155 °C | CCC(CC)c1ccc(COc2ccc(-c3csc(CN(CC(=O)O)Cc4ccc(F)cc4)n3)cc2)cc1 [Example 3-14] | –
0.4 µM | 195.7 to 196.8 °C | CCCC(CCC)c1ccc(OCc2ccc(-c3ccc(CN(CC(=O)O)Cc4ccc(OC)cc4)s3)cc2)cc1 [Example 4-77] | –
0.41 µM | 83 to 85 °C | CCCC(CCC)c1ccc(Cn2cc(-c3csc(CNc4cccc(C(=O)O)c4)n3)c3ccccc32)cc1 [Example 1-167] | –
0.44 µM | 195 to 196.5 °C | CCCC(CCC)c1ccc(OCc2ccc(-c3csc(Cn4nc(C(=O)O)cc4C(C)(C)C)n3)cc2)cc1 [Example 1-178] | –
0.12 µM | 131.8 to 137.6 °C | CCCC(CCC)c1ccc(OCc2ccc(-c3ccc(CN(CC(=O)O)Cc4c[nH]c(-c5ccccc5)n4)s3)cc2)cc1 [Example 4-94] | –
< 0.1 µM | 116 to 117.6 °C | CCCC(CCC)c1ccc(OCc2ccc(-c3ccc(CN(CC(=O)O)c4nc(-c5ccc(Cl)cc5)cs4)s3)cc2)cc1 [Example 4-107] | –
< 0.1 µM | 104.4 to 107.2 °C | CCCC(CCC)c1ccc(OCc2ccc(-c3ccc(CN(CC(=O)O)c4nc5ccccc5s4)s3)cc2)cc1 [Example 4-99] | –
0.45 µM | 128 to 131 °C | CCN(Cc1ccc(C2CCCCC2)cc1)c1ccc(-c2ccc(CN(CC(=O)O)Cc3ccccn3)s2)cc1 [Example 4-66] | –
< 0.1 µM | 225 to 229 °C (dec.) | CCN(C[C@H]1CC[C@H](c2ccc(C(C)(C)C)cc2)CC1)c1ccc(-c2csc(CN3CCC(c4ccc(C(=O)O)cc4)CC3)c2)cc1 [Example 4-68] | –
0.11 µM | 242.4 to 265.9 °C | C[C@H]1CC[C@H](c2ccc(COc3ccc(-c4ccc(CN5CCN(c6ccc(C(=O)O)cc6)CC5)s4)cc3)cc2)CC1 [Example 4-74] | –
0.14 µM | 165.7 to 166.8 °C | CCCC(CCC)c1ccc(OCc2ccc(-c3csc(CN(CC(=O)O)Cc4nc5ccccc5n4C)c3)cc2)cc1.Cl [Example 4-54] | –
0.2 µM | 115.9 to 121.1 °C | Cc1ccc(OCc2ccc(C3CCCCC3)cc2)c(-c2csc(CN(C(=O)C(=O)O)c3ccc4nc(C)sc4c3)c2)c1 [Example 4-104] | –
0.31 µM | 124 to 128 °C | CCCC(CCC)c1ccc(Cn2cc(-c3csc(CN4CCc5ccc(C(=O)O)cc5C4)n3)c3ccccc32)cc1 [Example 1-166] | –
